Laboratory results from publication PMC10518717, “High-Throughput Screening and Proteomic Characterization of Compounds Targeting Myeloid-Derived Suppressor Cells” (Molecular & Cellular Proteomics : MCP, 2023).

Assays:
NUP-MDSC cell lysate [1] = biological target: T1, NUP-MDSC cell lysate (Mus musculus, UniProt O70589); assay: Solvent-induced protein precipitation profiling, proteome-wide; assay type: binding; settings: protein Cask; soluble fraction; 26 uM
T1 construct: endogenous in cells; host or cells: mouse NUP-MDSC (lysate)
T1 sequence (O70589 1-926): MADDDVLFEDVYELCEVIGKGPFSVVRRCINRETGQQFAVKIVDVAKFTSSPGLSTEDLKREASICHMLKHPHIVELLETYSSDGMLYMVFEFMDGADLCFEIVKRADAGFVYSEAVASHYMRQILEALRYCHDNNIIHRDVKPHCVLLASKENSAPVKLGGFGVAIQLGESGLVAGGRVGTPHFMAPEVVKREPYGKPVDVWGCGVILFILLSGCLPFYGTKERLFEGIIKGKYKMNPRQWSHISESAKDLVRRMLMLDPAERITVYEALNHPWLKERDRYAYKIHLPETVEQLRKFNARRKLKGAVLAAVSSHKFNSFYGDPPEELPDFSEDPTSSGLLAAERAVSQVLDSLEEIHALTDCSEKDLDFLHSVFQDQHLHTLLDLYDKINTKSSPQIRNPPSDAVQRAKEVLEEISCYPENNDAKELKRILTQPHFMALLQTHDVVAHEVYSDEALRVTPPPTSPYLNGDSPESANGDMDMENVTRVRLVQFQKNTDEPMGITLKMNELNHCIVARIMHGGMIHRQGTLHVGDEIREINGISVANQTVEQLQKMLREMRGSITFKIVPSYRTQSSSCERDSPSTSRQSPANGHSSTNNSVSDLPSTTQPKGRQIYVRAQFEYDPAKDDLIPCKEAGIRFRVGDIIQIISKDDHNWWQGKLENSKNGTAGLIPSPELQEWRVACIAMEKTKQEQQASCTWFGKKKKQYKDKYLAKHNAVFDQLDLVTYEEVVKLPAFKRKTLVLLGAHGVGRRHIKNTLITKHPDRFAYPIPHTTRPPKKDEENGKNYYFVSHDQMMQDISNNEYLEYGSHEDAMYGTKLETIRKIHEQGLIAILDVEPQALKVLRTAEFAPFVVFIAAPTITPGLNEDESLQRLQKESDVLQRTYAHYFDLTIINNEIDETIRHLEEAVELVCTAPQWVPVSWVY
Experimental: (§1) NUP-MDSCs were differentiated as described above, washed twice with PBS, resuspended in lysis buffer (PBS, 0.4% IGEPAL CA-630, 1× Halt Protease-Inhibitor Cocktail (Thermo Fisher Scientific)), and subjected to three freeze-thaw cycles. The lysate was cleared by centrifugation for 30 min at 18,000g and 4 °C. The soluble fraction was diluted to 4 mg/ml and allowed to warm up to room temperature. Equal volumes of lysate were treated in triplicates with 100 x compound stock solutions (in DMSO) or DMSO for 15 min at room temperature (final concentrations: cmpd 2: 7.8 μM (3xEC50) and 26 μM (10xEC50), cmpd 3: 10 μM and 26 μM). Similar to a previous study ([46]), each sample was divided into eight aliquots to be denatured using different concentrations (8%, 10%, 12%, 14%, 16%, 18%, 20%, 22%) of acetone:ethanol:acetic acid (50:50:0.1) in water for 20 min at 37 °C with vigorous shaking. Aggregated proteins were separated by centrifugation for 45 min at 4 °C and 3900g. Next, equal amounts of the soluble fraction were pooled for subsequent proteomic analysis.
(§2) Methanol was added to 100 μg of the pooled supernatants to a final concentration of 70% and further processed according to the R2P1 protocol ([47]), with tryptic digestion performed in 50 mM Hepes (pH 8.5). Elution fractions were combined and dried by vacuum centrifugation. Dried samples were resuspended in deionized water, and TMT labeling was performed according to Zecha et al. ([35]). All 15 samples (5 treatment conditions in triplicates) were labeled with one TMTpro plex. Next, equal amounts were pooled and desalted by C18 solid-phase extraction cartridges (Sep-Pak Vac 1 cc C18 Cartridges, Waters Corp). Desalted peptides were chromatographically separated via basic reversed phase chromatography as previously described ([36]) into 24 fractions, dried down, and stored at −20 °C until further analysis.
(§3) Peptides were analyzed via LC-MS/MS on a Vanquish Neo UHPLC coupled to an Orbitrap Eclipse Tribrid mass spectrometer (Thermo Fisher Scientific). […] The mass spectrometer was operated in data-dependent mode and positive ionization mode. Samples were measured, employing a MS3 method with real-time search. […] Iontrap-MS2 spectra for peptide identification were acquired using HCD fragmentation with 35% NCE, an isolation window of 0.7 m/z, an AGC target value of 5e4 charges, and a maxIT of 35 ms. To obtain quantitative information on TMT reporter ions, each peptide precursor was fragmented again as for MS2 analysis followed by synchronous selection of the up to 10 most intense peptide fragments in the iontrap ([37]) and further fragmentation via HCD using an NCE of 55%. For the MS3 scan, real-time search was enabled to only trigger a MS3 scan for peptides that are TMT-labeled and can be identified (searched against a mouse database, same as used for maxquant processing). The MS3 scan was recorded in the OT at 30,000 resolution (scan range 110–500 m/z, isolation window of 0.7 m/z, AGC of 2e4 charges, maxIT of 120 ms). The cycle time was set to 3 s, and the dynamic exclusion lasted for 60 s.
(§4) Raw files were searched with Maxquant (v. 2.0.3.0) against the mouse reference proteome (UP000000589, canonical, download 10/2019, 55,029 entries) with standard settings for reporter ion MS3 unless described otherwise ([39]). Isotope impurities of the TMT lot were specified to allow MaxQuant the automated correction of TMT intensities. […] Trypsin/P was specified as the proteolytic enzyme with up to two missed cleavage sites allowed. […]

NUP-MDSC cell lysate [2] = assay: as above; assay type: binding, mouse; settings: for log2 FC cmpd2_26uM/cmpd3_26uM: soluble fraction, 26 uM
Experimental: as §1, §2, §3, §4

CCOC(=O)c1nnn(-c2nn3nnnc3c3ccccc23)c1C [compound 2]
log2 FC cmpd2_26uM/cmpd3_26uM (NUP-MDSC cell lysate [1]): 0.23 | stabilization of proteins against solvent-induced aggregation (NUP-MDSC cell lysate [2]; 7.8 μM and 26 μM, vs compound 3): significant stabilization of several proteins | log2 FC cmpd2_26uM/cmpd3_26uM (NUP-MDSC cell lysate [2]; protein Magohb;Magoh): 0.25 | log2 FC cmpd2_26uM/cmpd3_26uM (NUP-MDSC cell lysate [2]; protein Srcap): -0.12
